The text below walks through data of article PMC12150604, “Exploring structure–activity relationships of pyrrolyl diketo acid derivatives as non-nucleoside inhibitors of terminal deoxynucleotidyl transferase enzyme” (Journal of Enzyme Inhibition and Medicinal Chemistry, 2025).

Where “and” joins values, the source holds several entries; their conditions need not be identical. Equal values may be shown once. Read-outs that look alike come from different tables or passages of the source.

For the test, the target named is T1, human TdT (Homo sapiens, UniProt P04053).
T1 construct: purchased Trevigen (Gaithersburg, MD)
The test is described as follows: Terminal transferase assay, TdT. The class given is biochemical. The settings on record: for IC50: human TdT. Here is the method: Recombinant full-length human DNA polymerase λ and β were generated and purified as described. After purification, the protein was >90% homogeneous, as judged by sodium dodecyl sulphate (SDS)−polyacrylamide gel electrophoresis (PAGE) and Coomassie staining. TdT was from Trevigen (Gaithersburg, MD).
Terminal Transferase Assay. DNA polymerase λ and TdT terminal transferase activities were assayed in a final volume of 25 μL containing 50 mM Tris-HCl (pH 7.0), 0.25 mg/mL BSA, 1 mM DTT, 0.2 μM ss 30mer (AAC)10 DNA oligonucleotide, 25 μM [3H]dNTPs (10 Ci/mmol) and 0.5 mM MnCl2 or 5 mM MgCl2 used as cofactors. Terminal transferase activity was monitored in the presence of 10% DMSO or in the presence of increasing amounts of inhibitors dissolved in DMSO. All reactions were incubated for 10 min at 37 °C and the DNA precipitated with 10% trichloroacetic acid. Insoluble radioactive material was determined by scintillation counting using Trilux beta-counter (PerkinElmer) as described.
Dose − response curves were generated by computer fitting of the data to the equation E(%) = Emax/(1 + I/ID50) where E(%) is the fraction of enzyme’s activity measured in the presence of the inhibitor, Emax is the activity in the absence of the inhibitor, I is the inhibitor concentration, and ID50 is the inhibitor concentration at which E(%) = 0.5 Emax. ID50 values were generated using GraphPad Prism 6.

[1] abbreviates: Mn2+ as cofactor, read-out: ID50 (µM) Mn2+.
Where [2] appears, read: Mg2+ as cofactor, read-out: ID50 (µM) Mg2+.

T1 sequence (P04053 whole entry): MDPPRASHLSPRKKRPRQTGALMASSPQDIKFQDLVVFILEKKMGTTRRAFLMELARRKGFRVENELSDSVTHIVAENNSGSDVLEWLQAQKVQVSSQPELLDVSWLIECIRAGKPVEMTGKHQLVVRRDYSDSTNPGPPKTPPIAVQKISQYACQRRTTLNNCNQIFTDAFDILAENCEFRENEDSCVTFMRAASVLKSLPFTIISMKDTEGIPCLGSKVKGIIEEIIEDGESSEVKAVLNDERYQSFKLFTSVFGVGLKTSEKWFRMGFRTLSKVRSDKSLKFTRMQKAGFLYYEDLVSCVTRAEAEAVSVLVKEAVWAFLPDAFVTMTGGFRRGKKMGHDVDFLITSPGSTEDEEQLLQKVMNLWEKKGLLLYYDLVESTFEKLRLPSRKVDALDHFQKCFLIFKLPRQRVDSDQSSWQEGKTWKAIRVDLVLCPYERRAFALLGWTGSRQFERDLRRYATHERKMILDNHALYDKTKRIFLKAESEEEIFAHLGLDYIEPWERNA

On to `CCOC(=O)/C(O)=C/C(=O)/C=C/c1cccn1Cc1ccc(F)cc1` [Compound 5a, Ethyl (2Z,5E)-6-(1-(4-fluorobenzyl)-1H-pyrrol-2-yl)-2-hydroxy-4-oxohexa-2,5-dienoate], for which, under setting [1], the IC50 was greater than 50 µM.
Still for that read-out and setting: then `CCOC(=O)/C(O)=C/C(=O)/C=C/c1cc(-c2ccccc2)cn1Cc1ccc(F)cc1` [Compound 5b, Ethyl (2Z,5E)-6-(1-(4-fluorobenzyl)-4-phenyl-1H-pyrrol-2-yl)-2-hydroxy-4-oxohexa-2,5-dienoate], with greater than 50 µM; and `CCOC(=O)/C(O)=C/C(=O)/C=C/c1cc(C(=O)c2ccc3c(c2)OCCO3)cn1Cc1ccc(F)cc1` [Compound 5c], with greater than 50 µM.
With `CCOC(=O)/C(O)=C/C(=O)/C=C/c1cc(C(=O)c2ccc(OCc3ccc4ccccc4c3)cc2)cn1Cc1ccc(F)cc1` [Compound 5d], the IC50 was 5.83 ± 1.76 µM under setting [2] and greater than 50 µM under setting [1].
The corresponding values for `CCOC(=O)/C(O)=C\C(=O)/C=C/c1cc(C(=O)c2ccc([N+](=O)[O-])cc2)cn1Cc1ccc(F)cc1` [Compound 5f] are 6.54 ± 0.78 µM and greater than 50 µM.
For `CCOC(=O)/C(O)=C/C(=O)/C=C/c1cc(C(=O)c2ccc(NC(=O)c3ccc(OC)c(Br)c3)cc2)cn1Cc1ccc(F)cc1` [Compound 5g], in that order: 0.91 ± 0.36 µM and greater than 50 µM.
Regarding `CCOC(=O)/C(O)=C/C(=O)/C=C/c1cc(C(=O)c2ccccc2)cn1Cc1cccc2ccccc12` [Compound 5j], the IC50 by setting is: under setting [2], 3.68 ± 1 µM; under setting [1], greater than 50 µM.
With `CCOC(=O)/C(O)=C/C(=O)/C=C/c1cc(C(=O)c2cc(OC)c(OC)c(OC)c2)c[nH]1` [Compound 5k], the “times lower potency than acid counterpart 6k” value (TdT, Mn2+, ratio of ID50) was found to be 3 times. Moreover, the IC50 under setting [2] was 10.6 ± 3.6 µM and the IC50 under setting [1] came to 1.28 ± 0.27 µM.
As for `CCOC(=O)/C(O)=C/C(=O)/C=C/c1cc(C(=O)c2ccccc2)c[nH]1` [Compound 5l, (2Z,5E)-ethyl 6-(4-benzoyl-1H-pyrrol-2-yl)-2-hydroxy-4-oxohexa-2,5-dienoate], the IC50 under setting [2] is 37.8 µM and 35.8 µM; the IC50 under setting [1] was greater than 50 µM.
Turning to `CCOC(=O)/C(O)=C/C(=O)/C=C/c1cc(C(=O)c2ccccc2)cn1S(=O)(=O)c1ccc(F)cc1` [Compound 5m], the IC50 was 3.87 ± 0.55 µM under setting [2] and 8.75 ± 0.35 µM under setting [1].
On to `O=C(/C=C(\O)C(=O)O)/C=C/c1cccn1Cc1ccc(F)cc1` [Compound 6a, (2Z,5E)-6-(1-(4-fluorobenzyl)-1H-pyrrol-2-yl)-2-hydroxy-4-oxohexa-2,5-dienoic acid], for which, where the note is “TdT, Mn2+, ratio of ID50”, the “times higher activity than 4-phenyl counterpart 6b” value is recorded as 4 times and the “times more active than the hit compound 2” value is “about 6 times”. Moreover, under setting [2], the IC50 is greater than 50 µM. In addition, the IC50 under setting [1] was determined as 1.63 ± 0.35 µM.
As for `O=C(/C=C(\O)C(=O)O)/C=C/c1cc(-c2ccccc2)cn1Cc1ccc(F)cc1` [Compound 6b, (2Z,5E)-6-(1-(4-fluorobenzyl)-4-phenyl-1H-pyrrol-2-yl)-2-hydroxy-4-oxohexa-2,5-dienoic acid], the IC50 runs as follows: under setting [2], greater than 50 µM; under setting [1], 6.9 ± 2.5 µM.
`O=C(/C=C(\O)C(=O)O)/C=C/c1cc(C(=O)c2ccc3c(c2)OCCO3)cn1Cc1ccc(F)cc1` [Compound 6c]: the IC50 under setting [1] was 4.07 ± 0.81 µM.
In the case of `O=C(/C=C(\O)C(=O)O)/C=C/c1cc(C(=O)c2ccc(OCc3ccc4ccccc4c3)cc2)cn1Cc1ccc(F)cc1` [Compound 6d], the IC50 under setting [2] worked out at 12.8 ± 4.2 µM and the IC50 under setting [1] was greater than 50 µM.
For `O=C(/C=C/c1cc(C(=O)c2ccc([N+](=O)[O-])cc2)cn1Cc1ccc(F)cc1)/C=C(/O)C(=O)O` [Compound 6f], in that order: 0.64 ± 0.25 µM and 7.71 ± 2.4 µM.
For `COc1ccc(C(=O)Nc2ccc(C(=O)c3cc(/C=C/C(=O)/C=C(\O)C(=O)O)n(Cc4ccc(F)cc4)c3)cc2)cc1Br` [Compound 6g], the IC50 under setting [2] amounted to 0.41 ± 0.03 µM and the IC50 under setting [1] is greater than 50 µM.
The corresponding values for `O=C(/C=C(\O)C(=O)O)/C=C/c1cc(C(=O)c2ccccc2)cn1Cc1cccc2ccccc12` [Compound 6j] are 2.11 ± 0.5 µM and greater than 50 µM.
The corresponding values for `COc1cc(C(=O)c2c[nH]c(/C=C/C(=O)/C=C(\O)C(=O)O)c2)cc(OC)c1OC` [Compound 6k] are 0.86 ± 0.14 µM and 0.38 ± 0.06 µM.
Take `O=C(/C=C(\O)C(=O)O)/C=C/c1cc(C(=O)c2ccccc2)c[nH]1` [Compound 6l, (2Z,5E)-6-(4-benzoyl-1H-pyrrol-2-yl)-2-hydroxy-4-oxohexa-2,5-dienoic acid]: the IC50 came to 0.22 ± 0.01 µM under setting [2] and 0.3 ± 0.13 µM under setting [1].
In the case of `O=C(/C=C(\O)C(=O)O)/C=C/c1cc(C(=O)c2ccccc2)cn1S(=O)(=O)c1ccc(F)cc1` [Compound 6m], the IC50 is, setting by setting: under setting [2], 0.34 ± 0.01 µM; under setting [1], 0.33 ± 0.05 µM.
For `CCOC(=O)/C(O)=C/C(=O)/C=C/c1ccn(Cc2ccc(F)cc2)c1` [Compound 7a, Ethyl (2Z,5E)-6-(1-(4-fluorobenzyl)-1H-pyrrol-3-yl)-2-hydroxy-4-oxohexa-2,5-dienoate], the IC50 under setting [1] is greater than 50 µM.
Consider `CCOC(=O)/C(O)=C/C(=O)/C=C/c1cn(Cc2ccc(F)cc2)cc1-c1ccccc1` [Compound 7b, Ethyl (2Z,5E)-6-(1-(4-fluorobenzyl)-4-phenyl-1H-pyrrol-3-yl)-2-hydroxy-4-oxohexa-2,5-dienoate], for which the IC50 under setting [1] turned out to be 2.72 ± 0.73 µM.
Consider `CCOC(=O)/C(O)=C/C(=O)/C=C/c1c[nH]cc1-c1ccccc1` [Compound 7c], for which the IC50 runs as follows: under setting [2], 10.5 ± 3.6 µM; under setting [1], greater than 50 µM.
The corresponding values for `CCOC(=O)/C(O)=C/C(=O)/C=C/c1c[nH]cc1-c1cc(OC)c(OC)c(OC)c1` [Compound 7d] are 21.3 ± 5.05 µM and greater than 50 µM.
Take `O=C(/C=C(\O)C(=O)O)/C=C/c1ccn(Cc2ccc(F)cc2)c1` [Compound 8a, (2Z,5E)-6-(1-(4-fluorobenzyl)-1H-pyrrol-3-yl)-2-hydroxy-4-oxohexa-2,5-dienoic acid]: the IC50 under setting [1] stood at 6.31 ± 2.8 µM.
Same read-out and setting: with `O=C(/C=C(\O)C(=O)O)/C=C/c1cn(Cc2ccc(F)cc2)cc1-c1ccccc1` [Compound 8b, (2Z,5E)-6-(1-(4-fluorobenzyl)-4-phenyl-1H-pyrrol-3-yl)-2-hydroxy-4-oxohexa-2,5-dienoic acid] the figure was 0.66 ± 0.12 µM.
In the case of `O=C(/C=C(\O)C(=O)O)/C=C/c1c[nH]cc1-c1ccccc1` [Compound 8c], where the note is “TdT”, the “improvement in inhibitory activity in respect to hit compound 4” value is listed as “higher than 3 times”. Moreover, the IC50 under setting [1] is 0.19 ± 0.08 µM.
Turning to `COc1cc(-c2c[nH]cc2/C=C/C(=O)/C=C(\O)C(=O)O)cc(OC)c1OC` [Compound 8d], the IC50 amounted to 0.24 ± 0.03 µM under setting [2] and 0.23 ± 0.03 µM under setting [1].
In the case of `CCOC(=O)/C(O)=C/C(=O)c1cccn1Cc1ccc(F)cc1` [Compound 9a, Ethyl (Z)-4-(1-(4-fluorobenzyl)-1H-pyrrol-2-yl)-2-hydroxy-4-oxobut-2-enoate], under setting [1], the IC50 is greater than 50 µM.
On to `CCOC(=O)/C(O)=C/C(=O)c1cc(-c2ccccc2)cn1Cc1ccc(F)cc1` [Compound 9b, Ethyl (Z)-4-(1-(4-fluorobenzyl)-4-phenyl-1H-pyrrol-2-yl)-2-hydroxy-4-oxobut-2-enoate], for which the IC50 under setting [1] was greater than 50 µM.
Same read-out and setting: then `O=C(O)/C(O)=C/C(=O)c1cccn1Cc1ccc(F)cc1` [Compound 10a, (Z)-4-(1-(4-fluorobenzyl)-1H-pyrrol-2-yl)-2-hydroxy-4-oxobut-2-enoic acid], with 1.16 ± 0.35 µM.
Same read-out and setting: then `O=C(O)/C(O)=C/C(=O)c1cc(-c2ccccc2)cn1Cc1ccc(F)cc1` [Compound 10b, (Z)-4-(1-(4-fluorobenzyl)-4-phenyl-1H-pyrrol-2-yl)-2-hydroxy-4-oxobut-2-enoic acid], with 3.25 ± 0.66 µM.
The same measure, in the same setting: with `CCOC(=O)/C(O)=C/C(=O)c1ccn(Cc2ccc(F)cc2)c1` [Compound 11a, Ethyl (Z)-4-(1-(4-fluorobenzyl)-1H-pyrrol-3-yl)-2-hydroxy-4-oxobut-2-enoate] the figure was greater than 50 µM; with `O=C(O)/C(O)=C/C(=O)c1ccn(Cc2ccc(F)cc2)c1` [Compound 12a, (Z)-4-(1-(4-fluorobenzyl)-1H-pyrrol-3-yl)-2-hydroxy-4-oxobut-2-enoic acid], 2.8 ± 0.7 µM; with “(E)-6-(1-(4-fluorobenzyl)-4-(4-phenoxybenzoyl)-1H-pyrrol-2-yl)-2,4-dioxohex-5-enoic acid [Compound 6e]”, greater than 50 µM.
